Results reported in US20130040306A1, “BACKSCATTERING INTERFEROMETRIC ANALYSIS OF MEMBRANE MATERIALS” (priority 2011, published 2013).
“Also recorded” adds a separate entry of the source.

Assays:
[1] = target: T1, PLCδ1 (Homo sapiens, UniProt P51178); experiment: BSI small molecule binding (Kd) to PLCδ1 control; details: control protein
T1 sequence (P51178 1-756): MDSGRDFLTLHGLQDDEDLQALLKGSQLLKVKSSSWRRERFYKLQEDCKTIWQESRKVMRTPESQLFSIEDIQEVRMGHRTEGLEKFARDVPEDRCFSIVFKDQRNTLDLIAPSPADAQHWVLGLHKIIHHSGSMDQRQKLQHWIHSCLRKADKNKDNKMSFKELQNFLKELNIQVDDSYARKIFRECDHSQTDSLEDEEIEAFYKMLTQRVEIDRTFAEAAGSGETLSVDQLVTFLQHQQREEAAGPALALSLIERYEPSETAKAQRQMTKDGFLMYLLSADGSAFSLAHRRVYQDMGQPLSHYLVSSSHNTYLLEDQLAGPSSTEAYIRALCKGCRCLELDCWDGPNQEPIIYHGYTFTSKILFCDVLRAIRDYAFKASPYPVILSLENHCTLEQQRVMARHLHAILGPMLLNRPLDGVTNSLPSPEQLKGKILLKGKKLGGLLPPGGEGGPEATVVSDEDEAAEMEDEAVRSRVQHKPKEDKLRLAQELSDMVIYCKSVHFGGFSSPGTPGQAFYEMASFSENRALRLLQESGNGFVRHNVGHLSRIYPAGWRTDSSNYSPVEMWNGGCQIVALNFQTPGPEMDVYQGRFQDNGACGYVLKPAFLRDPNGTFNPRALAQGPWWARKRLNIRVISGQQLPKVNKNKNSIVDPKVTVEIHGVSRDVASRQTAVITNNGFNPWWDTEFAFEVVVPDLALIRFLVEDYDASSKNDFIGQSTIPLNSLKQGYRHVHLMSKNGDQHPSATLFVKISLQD
Excerpt: (§1) For the backscattering interferometry experiments, large-unilamellar lipid vesicles are generated via extrusion for use in interfacial kinetic studies. The composition generally includes 86% mol neutral diluent (36:2 PE or 36:2 PG), 5% mol PI(4,5)P2, and 8% mol 32:0 PC. Following extrusion, bulk lipid concentration is confirmed via quantitative LC/MS. A HeNe laser beam is then directed at a sample in the channel of a microfluidic chip, resulting in an interference fringe pattern that is detected by the CCD camera. This fringe pattern shifts spatially as the refractive index (RI) of the sample changes; these shifts are translated into a numerical change in phase of the corresponding Fourier transformation. The absolute value of the magnitude in phase change corresponds to the change in solvation/hydration of the protein upon binding ligand, and can be used to plot a ligand binding curve. This inventive BSI technique can also accurately and reproducibly measure protein-lipid binding. […]
(§2) BSI was used to measure Kd of two VU-series compounds for albumin in the absence of lipid. […] As another control to confirm that vesicle composition is not disrupted due to small molecule treatment, Kd and Ks are measured for PLCδ1, which binds PIP2 at both its PH and catalytic domains.

[2] = target: T2, albumin (Homo sapiens, UniProt P02768); experiment: BSI lipid binding (Ks) with albumin after small molecule treatment; details: small molecule treatment vs vehicle
Excerpt: as §1, with “curve.” for “curve. This inventive BSI technique can also accurately and reproducibly measure protein-lipid binding.”
(§3) BSI can also be used to measure changes in lipid binding affinities due to small molecule treatment. BSI-derived values can be compared to Ks values determined using classic biochemical methods.
as §2

[3] = preliminary DMPK plasma protein studies; type: in vitro ADME
[4] = target: T1, PLCδ1; experiment: BSI lipid binding (Ks) of PLCδ1 after small molecule treatment; details: small molecule treatment vs vehicle
Excerpt: as §1, §2

[5] = target: T2, albumin; experiment: BSI small molecule binding to albumin in the absence of lipid
Excerpt: as §1, §2

[6] = target: T3, PLD1c.d311 (Homo sapiens, UniProt Q13393); experiment: BSI small molecule binding to purified PLD1c.d311 in the absence of lipid; details: for direct binding to purified PLD1c.d311 by BSI: absence of lipid
T3 construct: an amino-terminally-truncated and catalytically active construct; made in house; host or cells: SF21 insect cells
T3 sequence (Q13393 312-1074 limits assumed): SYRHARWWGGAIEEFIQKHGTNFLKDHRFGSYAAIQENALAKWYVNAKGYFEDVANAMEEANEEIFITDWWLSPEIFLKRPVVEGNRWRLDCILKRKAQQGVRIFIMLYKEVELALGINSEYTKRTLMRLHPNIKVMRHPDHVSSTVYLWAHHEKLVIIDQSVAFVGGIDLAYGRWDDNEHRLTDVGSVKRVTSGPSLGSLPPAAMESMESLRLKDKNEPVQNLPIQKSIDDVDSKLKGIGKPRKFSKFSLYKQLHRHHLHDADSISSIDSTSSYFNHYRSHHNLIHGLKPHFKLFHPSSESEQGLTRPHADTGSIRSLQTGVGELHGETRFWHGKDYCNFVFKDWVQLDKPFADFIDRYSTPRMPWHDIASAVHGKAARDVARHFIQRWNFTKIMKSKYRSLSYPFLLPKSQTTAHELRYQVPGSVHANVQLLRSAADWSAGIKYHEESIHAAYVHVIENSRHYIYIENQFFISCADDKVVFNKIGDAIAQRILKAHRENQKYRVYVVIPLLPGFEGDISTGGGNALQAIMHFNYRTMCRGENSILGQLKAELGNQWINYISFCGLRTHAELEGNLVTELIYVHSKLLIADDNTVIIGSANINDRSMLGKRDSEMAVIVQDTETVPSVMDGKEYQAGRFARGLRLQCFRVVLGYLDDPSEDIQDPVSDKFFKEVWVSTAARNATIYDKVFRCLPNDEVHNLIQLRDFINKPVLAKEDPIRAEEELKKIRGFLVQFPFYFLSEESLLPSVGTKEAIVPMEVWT
Excerpt: Protein constructs that are composed of different domains of the enzyme are thus used to determine the approximate site of small molecule interaction. The bulk of the studies performed thus far use human PLD1c.d311, an amino-terminally-truncated and catalytically active construct that has robust expression in SF21 insect cells, and can be purified to homogeneity over a single affinity chromatography step. This construct does retain a small portion of the pleckstrin homology domain that is necessary for catalytic activity of the enzyme (reason for this is unknown).
Binding studies are performed using backscattering interferometry (BSI), which can be performed on an efficient nanoscale level with a picomolar limit of detection, and can be used to measure Ki and Ks values for inhibitor-treated purified protein.
For the backscattering interferometry experiments, large-unilamellar lipid vesicles are generated via extrusion for use in interfacial kinetic studies. The composition generally includes 86% mol neutral diluent (36:2 PE or 36:2 PG), 5% mol PI(4,5)P2, and 8% mol 32:0 PC. Following extrusion, bulk lipid concentration is confirmed via quantitative LC/MS. A HeNe laser beam is then directed at a sample in the channel of a microfluidic chip, resulting in an interference fringe pattern that is detected by the CCD camera. This fringe pattern shifts spatially as the refractive index (RI) of the sample changes; these shifts are translated into a numerical change in phase of the corresponding Fourier transformation. The absolute value of the magnitude in phase change corresponds to the change in solvation/hydration of the protein upon binding ligand, and can be used to plot a ligand binding curve. This inventive BSI technique can also accurately and reproducibly measure protein-lipid binding. This technique measures small shifts in RI phase (limit of sensitivity is picomolar) and requires only nanomolar concentrations of protein and ligand in a 1 μl volume channel.

[7] = target: T4, PLD1.d311 (Homo sapiens, UniProt Q13393); experiment: in vitro PLD activity assay (release of tritiated choline headgroup, lipid vesicles); type: biochemical; details: for IC50: in vitro PLD activity assay
T4 construct: an amino-terminally-truncated and catalytically active construct; made in house; host or cells: SF21 insect cells
T4 sequence (Q13393 312-1074 limits assumed): T3 sequence (Q13393 312-1074 limits assumed)
Description: In vitro activity assays can be performed to measure changes in Km, and Vmax due to small molecule inhibition. This reconstitution assay uses large unilamellar vesicles (generated by extrusion of defined % mol amounts of purified lipid species) incubated with purified PLD and measures the release of a tritiated choline headgroup as a readout of catalytic activity.
Concentration response curves were generated in a radioisotopically labelled activity assay for three VU-series compounds and tungstate with N-myr-Arf1 activated PLD1.d311. Ki measurements of these inhibitors were obtained using BSI.

[8] = target: T3, PLD1c.d311; experiment: BSI interfacial lipid binding affinity (Ks) of PLD after small molecule treatment; details: small molecule treated enzyme
Excerpt: Eukaryotic PLD is an interfacial enzyme that, in the classic model, binds the lipid surface via interaction with PI(4,5)P2 prior to hydrolyzing substrate. […] In order to study PLD, the interfacial binding affinity must first be measured (Ks), and subsequent studies must saturate lipid binding to force application of Michaelis-Menten kinetics.
as §1, with “transformation.” for “transformation. The absolute value of the magnitude in phase change corresponds to the change in solvation/hydration of the protein upon binding ligand, and can be used to plot a ligand binding curve. This inventive BSI technique can also accurately and reproducibly measure protein-lipid binding.”
as §3

T2 sequence (P02768 25-609, species assumed): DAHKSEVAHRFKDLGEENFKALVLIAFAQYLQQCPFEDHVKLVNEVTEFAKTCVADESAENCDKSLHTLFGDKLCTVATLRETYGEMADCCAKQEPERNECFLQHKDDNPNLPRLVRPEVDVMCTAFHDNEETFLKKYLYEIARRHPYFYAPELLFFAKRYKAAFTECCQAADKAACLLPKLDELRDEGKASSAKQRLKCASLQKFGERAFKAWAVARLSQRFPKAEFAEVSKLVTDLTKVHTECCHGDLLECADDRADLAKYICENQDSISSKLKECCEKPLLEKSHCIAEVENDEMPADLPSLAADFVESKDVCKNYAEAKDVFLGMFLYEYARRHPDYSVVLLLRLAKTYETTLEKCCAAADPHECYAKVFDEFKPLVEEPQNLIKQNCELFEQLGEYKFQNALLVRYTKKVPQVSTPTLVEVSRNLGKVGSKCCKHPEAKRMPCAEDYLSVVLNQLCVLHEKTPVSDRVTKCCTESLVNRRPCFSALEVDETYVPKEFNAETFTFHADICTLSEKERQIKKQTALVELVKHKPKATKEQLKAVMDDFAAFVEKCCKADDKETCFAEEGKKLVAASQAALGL

Structure (SMILES): C[C@@H](CN1CCC(n2c(=O)[nH]c3cc(Br)ccc32)CC1)NC(=O)[C@@H]1C[C@H]1c1ccccc1 [VU0359595]
- binding to PLCδ1 by BSI [1]: does not bind
- Ks compared to vehicle (albumin control) [2]: disrupted compared to vehicle
- plasma protein bound [3]: 98%
- Ks of PLCδ1 compared to vehicle [4]: does not show shifted Ks
- binding to albumin by BSI [5]: bind albumin

Structure (SMILES): [O]=[W](=[O])([O-])[O-] [tungstate]
- Ki (BSI) compared with IC50 (activity assay) ([6]; PLD1.d311, absence of lipid, vs IC50 with N-myr-Arf1 activated PLD1.d311): ≤ 2 fold
- direct binding to purified PLD1c.d311 by BSI [6]: directly binds the inhibitors in the absence of lipid

Structure (SMILES): CC/C(=C(\c1ccccc1)c1ccc(OCCN(C)C)cc1)c1ccccc1 [tamoxifen]
- PLD inhibition in vitro (in words) [7]: confirmed to be PLD inhibitors in vitro
- IC50 [7]: 48 µM
- direct binding to purified PLD1c.d311 by BSI [6]: does not bind
- mechanism of PLD inhibition ([6]; concluded from BSI measurements): indirectly inhibit PLD activity

Structure (SMILES): O=C(c1ccc(OCCN2CCCCC2)cc1)c1c(-c2ccc(O)cc2)sc2cc(O)ccc12 [raloxifene]
- PLD inhibition in vitro (in words) [7]: confirmed to be PLD inhibitors in vitro
- IC50 [7]: 10 µM
- shift of Ks (interfacial lipid binding) of PLD [8]: shifting Ks; also recorded: shifts Ks
- direct binding to purified PLD1c.d311 by BSI [6]: directly binds the enzyme
- direct binding to purified PLD1c.d311 by BSI ([6]; listed as Raloxifene): directly binds the enzyme in the absence of lipid
